# Paper PMC9748189 (Journal of Pain Research, 2022)
# Experiments:
# COX-1 = biological target: T1, COX-1 (Ovis aries, UniProt P05979); assay: recombinant COX-1 enzyme inhibition; format: biochemical
# T1 sequence (P05979 25-600): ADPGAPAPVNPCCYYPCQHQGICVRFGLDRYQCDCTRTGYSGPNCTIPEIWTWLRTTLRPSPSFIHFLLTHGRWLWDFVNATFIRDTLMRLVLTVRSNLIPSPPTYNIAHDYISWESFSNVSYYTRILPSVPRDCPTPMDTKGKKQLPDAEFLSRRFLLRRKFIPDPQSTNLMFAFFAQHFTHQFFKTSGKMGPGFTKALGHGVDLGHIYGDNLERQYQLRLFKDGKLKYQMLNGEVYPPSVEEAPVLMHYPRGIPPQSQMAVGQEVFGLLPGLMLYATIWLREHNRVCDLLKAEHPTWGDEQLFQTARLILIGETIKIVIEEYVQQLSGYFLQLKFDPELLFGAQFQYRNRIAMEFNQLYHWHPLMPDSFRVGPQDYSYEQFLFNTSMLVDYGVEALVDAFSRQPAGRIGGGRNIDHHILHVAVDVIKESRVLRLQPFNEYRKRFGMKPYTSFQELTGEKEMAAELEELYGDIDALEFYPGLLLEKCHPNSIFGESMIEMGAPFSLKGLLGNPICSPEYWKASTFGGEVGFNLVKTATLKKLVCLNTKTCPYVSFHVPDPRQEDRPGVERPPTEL
# COX-2 = biological target: T2, COX-2 (Ovis aries, UniProt P79208); assay: recombinant COX-2 enzyme inhibition; format: biochemical
# T2 sequence (P79208 17-603): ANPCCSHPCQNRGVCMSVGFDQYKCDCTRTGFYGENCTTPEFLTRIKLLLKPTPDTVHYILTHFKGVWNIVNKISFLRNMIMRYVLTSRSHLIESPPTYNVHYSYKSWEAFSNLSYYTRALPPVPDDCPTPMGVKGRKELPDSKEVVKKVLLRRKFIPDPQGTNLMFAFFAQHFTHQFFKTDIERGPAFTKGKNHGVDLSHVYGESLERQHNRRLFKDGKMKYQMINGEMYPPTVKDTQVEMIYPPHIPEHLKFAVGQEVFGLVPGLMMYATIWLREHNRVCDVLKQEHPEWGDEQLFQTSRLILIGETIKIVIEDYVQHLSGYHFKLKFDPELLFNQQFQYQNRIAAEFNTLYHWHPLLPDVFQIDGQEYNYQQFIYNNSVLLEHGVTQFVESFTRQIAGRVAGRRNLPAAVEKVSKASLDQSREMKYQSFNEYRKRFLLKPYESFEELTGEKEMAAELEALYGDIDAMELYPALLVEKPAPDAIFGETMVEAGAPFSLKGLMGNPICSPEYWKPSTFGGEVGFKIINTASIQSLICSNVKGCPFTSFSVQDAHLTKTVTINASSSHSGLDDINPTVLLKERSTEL
smiles,measurement,setting,value
"CC(=O)Oc1ccc(NCCc2ccc(C(F)(F)F)cc2)cc1C(=O)O [flusalazine, 2-acetoxy-5-(2-4-(trifluoromethyl)-phenethylamino)-benzoic acid]",IC50,COX-1,16.2 µM
same,IC50,COX-2,651 µM
